According to ChEMBL document CHEMBL1125472, “5-lipoxygenase: properties, pharmacology, and the quinolinyl(bridged)aryl class of inhibitors” (J Med Chem, 1992):
Each block holds one compound with its values, some of them ahead of it.

Legend:
Cavia porcellus [1] = assay: The compound was tested for inhibition of LTD4 response in guinea pig bronchoconstriction assay after intraduodenal administration (30 mg/kg)
Cavia porcellus [2] = species on record: Cavia porcellus; assay: The compound was tested for binding affinity against guinea pig lung membrane using [3H]LTD4 as radioligand
[3] = molecular target: T1, Polyunsaturated fatty acid 5-lipoxygenase (Rattus norvegicus, UniProt P12527); assay: The compound was tested for inhibitory activity against 5-Lipoxygenase in rat RBL-1; type: cell-based
T1 sequence (P12527 whole entry): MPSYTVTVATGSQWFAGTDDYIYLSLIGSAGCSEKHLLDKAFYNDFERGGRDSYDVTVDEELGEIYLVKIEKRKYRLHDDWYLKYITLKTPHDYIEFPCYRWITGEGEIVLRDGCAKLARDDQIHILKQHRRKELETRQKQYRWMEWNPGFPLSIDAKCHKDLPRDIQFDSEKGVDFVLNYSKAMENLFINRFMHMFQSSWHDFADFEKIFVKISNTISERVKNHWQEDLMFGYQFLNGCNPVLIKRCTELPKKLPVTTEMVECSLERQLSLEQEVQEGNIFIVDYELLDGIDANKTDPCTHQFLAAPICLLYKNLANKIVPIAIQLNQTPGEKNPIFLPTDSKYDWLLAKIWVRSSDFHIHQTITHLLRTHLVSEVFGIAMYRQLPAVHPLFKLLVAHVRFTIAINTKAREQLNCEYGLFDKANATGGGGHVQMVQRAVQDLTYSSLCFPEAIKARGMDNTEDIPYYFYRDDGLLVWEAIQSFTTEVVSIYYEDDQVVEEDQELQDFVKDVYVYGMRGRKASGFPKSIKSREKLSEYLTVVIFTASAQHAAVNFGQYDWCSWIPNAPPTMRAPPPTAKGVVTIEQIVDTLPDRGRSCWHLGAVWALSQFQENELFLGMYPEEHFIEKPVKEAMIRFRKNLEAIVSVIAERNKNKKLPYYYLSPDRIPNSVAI

[4] = molecular target: T1, Polyunsaturated fatty acid 5-lipoxygenase; assay: The compound was tested for inhibitory activity against 5-Lipoxygenase in rat polymorphonuclear leukocytes[PMNS]; type: cell-based
Cavia porcellus [5] = species on record: Cavia porcellus; assay: The effective dose for inhibition of LTD4-induced contractions of guinea pig trachea; type: functional
[6] = Compound was tested for spasmogenic activity of LTC4 on lung strips; type: functional
[7] = Compound was tested for spasmogenic activity of LTD4 on lung strips; type: functional
[8] = The effective dose for inhibition of anaphylactic death after oral administration; type: functional
Rattus norvegicus = species on record: Rattus norvegicus; assay: The compound was tested for inhibition of [3H]LTD4 binding to lung membrane; type: functional
[9] = Compound was tested for spasmogenic activity of LTE4 on lung strips; type: functional
[10] = The effective dose for inhibition of LTD4-induced wheal formation after oral administration; type: functional
[11] = molecular target: T2, Polyunsaturated fatty acid 5-lipoxygenase (Homo sapiens, UniProt P09917)
T2 sequence (P09917 whole entry): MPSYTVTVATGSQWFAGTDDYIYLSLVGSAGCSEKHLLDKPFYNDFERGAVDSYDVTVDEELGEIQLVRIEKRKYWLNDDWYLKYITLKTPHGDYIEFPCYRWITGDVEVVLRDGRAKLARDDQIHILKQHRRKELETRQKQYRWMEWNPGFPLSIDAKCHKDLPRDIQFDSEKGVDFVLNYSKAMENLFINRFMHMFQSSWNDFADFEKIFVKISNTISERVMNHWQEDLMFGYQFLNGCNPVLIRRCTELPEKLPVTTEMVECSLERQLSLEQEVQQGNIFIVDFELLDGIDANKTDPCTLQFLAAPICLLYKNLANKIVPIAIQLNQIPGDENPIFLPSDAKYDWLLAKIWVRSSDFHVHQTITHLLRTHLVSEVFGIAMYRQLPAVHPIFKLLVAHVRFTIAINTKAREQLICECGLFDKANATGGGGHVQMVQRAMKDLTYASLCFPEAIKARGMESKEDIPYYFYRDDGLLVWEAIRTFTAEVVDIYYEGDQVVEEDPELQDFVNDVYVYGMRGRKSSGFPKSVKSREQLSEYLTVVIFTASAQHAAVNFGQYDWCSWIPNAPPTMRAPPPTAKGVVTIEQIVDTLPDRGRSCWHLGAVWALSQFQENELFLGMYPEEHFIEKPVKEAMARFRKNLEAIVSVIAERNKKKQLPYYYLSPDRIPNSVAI
Description: The compound was tested for inhibitory activity against 5-Lipoxygenase in human polymorphonuclear leukocytes[PMNS]

Cyclooxygenase [12] = molecular target: Cyclooxygenase (Homo sapiens, UniProt P35354+P23219); assay: The compound was tested for inhibitory activity against Prostaglandin G/H synthase in human polymorphonuclear leukocytes[PMNS]; type: cell-based
Cyclooxygenase [13] = molecular target: T3, Cyclooxygenase (Rattus norvegicus, UniProt P35355+Q63921); assay: The compound was tested for inhibitory activity against Prostaglandin G/H synthase in rat polymorphonuclear leukocytes[PMNS]; type: cell-based
T3 sequence (P35355 whole entry): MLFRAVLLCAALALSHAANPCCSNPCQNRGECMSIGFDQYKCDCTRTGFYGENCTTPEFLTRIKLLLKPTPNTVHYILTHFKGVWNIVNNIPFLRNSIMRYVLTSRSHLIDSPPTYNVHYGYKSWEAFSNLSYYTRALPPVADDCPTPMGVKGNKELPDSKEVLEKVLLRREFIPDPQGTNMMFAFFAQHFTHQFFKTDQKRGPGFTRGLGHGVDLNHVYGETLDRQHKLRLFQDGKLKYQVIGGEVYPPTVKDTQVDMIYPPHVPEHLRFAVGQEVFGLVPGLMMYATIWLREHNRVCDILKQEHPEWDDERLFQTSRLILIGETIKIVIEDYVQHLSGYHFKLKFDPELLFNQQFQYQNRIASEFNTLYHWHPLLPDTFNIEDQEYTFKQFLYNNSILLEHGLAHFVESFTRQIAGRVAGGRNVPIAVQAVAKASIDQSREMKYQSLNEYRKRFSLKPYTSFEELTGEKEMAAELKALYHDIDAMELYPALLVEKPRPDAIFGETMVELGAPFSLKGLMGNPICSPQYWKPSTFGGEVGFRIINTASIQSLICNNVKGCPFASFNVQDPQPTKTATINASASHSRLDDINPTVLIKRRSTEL
T3 sequence (Q63921 whole entry): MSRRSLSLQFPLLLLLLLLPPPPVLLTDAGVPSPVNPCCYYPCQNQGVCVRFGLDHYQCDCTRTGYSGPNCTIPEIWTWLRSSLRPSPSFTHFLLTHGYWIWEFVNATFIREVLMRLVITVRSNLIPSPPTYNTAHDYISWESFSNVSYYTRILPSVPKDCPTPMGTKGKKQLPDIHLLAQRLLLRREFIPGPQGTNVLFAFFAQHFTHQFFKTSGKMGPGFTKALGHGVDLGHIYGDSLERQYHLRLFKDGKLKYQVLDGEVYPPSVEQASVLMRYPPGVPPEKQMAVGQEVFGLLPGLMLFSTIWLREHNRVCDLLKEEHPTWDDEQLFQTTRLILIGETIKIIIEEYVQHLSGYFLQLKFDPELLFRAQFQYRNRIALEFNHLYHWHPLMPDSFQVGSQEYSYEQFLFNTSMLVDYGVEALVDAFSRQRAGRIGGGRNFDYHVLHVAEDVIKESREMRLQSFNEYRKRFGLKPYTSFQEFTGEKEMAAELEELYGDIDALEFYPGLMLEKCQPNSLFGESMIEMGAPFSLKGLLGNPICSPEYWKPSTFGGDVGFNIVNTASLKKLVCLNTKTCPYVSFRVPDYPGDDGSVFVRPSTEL

[14] = molecular target: T1, Polyunsaturated fatty acid 5-lipoxygenase; assay: The compound was tested for inhibitory activity against 5-lipoxygenase in rat polymorphonuclear leukocytes[PMNS]; type: cell-based
Cavia porcellus [15] = species on record: Cavia porcellus; assay: The compound was tested for inhibitory activity against LTD4-induced contractions of guinea pig ileum; type: functional
[16] = molecular target: T4, Polyunsaturated fatty acid 5-lipoxygenase (Rattus norvegicus) (UniProt P12527); assay: The compound was tested for inhibition of isolated 5-Lipoxygenase
T4 sequence (whole entry): T1 sequence (P12527 whole entry)

RBL-2H3 [17] = assay: The compound was tested for inhibition of translocation in SAR in RBL-2H3 cells; type: functional, Rattus norvegicus
RBL-2H3 [18] = assay: The compound was tested for inhibition LTC4 synthesis; type: functional, Rattus norvegicus

Ki (Cavia porcellus [2]): 0.7 µM
SMILES: CCCCCC(O)c1cccc(OCc2ccc3ccccc3n2)c1 (stereo not drawn) [REV-5901]
Inhibition (Cavia porcellus [1]): 74%

IC50 [3]: 0.15 µM
SMILES: COc1ccc(-n2nc(CCC(=O)N(C)O)cc2-c2ccc(Cl)cc2)cc1 [TEPOXALIN]

IC50 [3]: 0.5 µM
SMILES: COc1c(OC)c(OC(C)=O)c2cc(Cl)ccc2c1OC(C)=O [LONAPALENE]

IC50 [4]: 3.9 µM
SMILES: Cc1ccc(S(=O)(=O)NC(=O)c2cccc(OCc3ccc4ccccc4n3)c2)cc1
ED50 (Cavia porcellus [5]): 3 mg/kg

SMILES: c1ccc(Cc2nn[nH]n2)c(COc2ccc(OCc3ccc4ccccc4n3)cc2)c1 [RG-12525]
Kb [6]: 0.0027 µM
Kb [7]: 0.0027 µM
ED50 [8]: 2.2 mg/kg
Ki (Rattus norvegicus): 0.003 µM
Kb [9]: 0.0027 µM
ED50 [10]: 5 mg/kg

IC50 [11]: 0.1 µM
SMILES: CSc1ccccc1/C=C/C(=O)N(C)O

IC50 [11]: 6 µM
SMILES: O=C(CCCCCCCCc1ccccc1)NO

SMILES: CC(C)(C)CC(=O)c1c(CC(C)(C)C(=O)O)n(Cc2ccc(Cl)cc2)c2ccc(OCc3ccc4ccccc4n3)cc12
IC50 (Cyclooxygenase [12]): 0.002 µM

IC50 (Cyclooxygenase [13]): 2 µM
IC50 [14]: 10 µM
IC50 (Cavia porcellus [15]): 0.003 µM
SMILES: O=C(O)c1ccccc1Nc1cccc(OCc2ccc3ccccc3n2)c1 [SR-2640]

IC50 [3]: 11 µM
SMILES: CC(c1ccoc1)N(O)C(N)=O (stereo not drawn)

SMILES: CONC(=O)Cc1cccc(OCc2ccc3ccccc3n2)c1
ED50 (Cavia porcellus [5]): 7.9 mg/kg

Inhibition [16]: > 20 µM
SMILES: COc1ccc2cc([C@H](C)C(=O)O)ccc2c1 [NAPROXEN]
Inhibition (RBL-2H3 [17]): >10 µM
Inhibition (RBL-2H3 [18]): >10 µM
